IC50 and Fold increase data for 56 molecules are collected here from publication PMC5863483, “Low HLA binding of diabetes-associated CD8+ T-cell epitopes is increased by post translational modifications” (BMC Immunology, 2018).

pIC50: −log10 of the molar value. Where two headings read alike, the source gives them in different places. *1 amine or outer side, *2 acyl side, *3 side chain or, on linkers, in order; H or OH if unused. Where a SMILES comes first, the peptide text is derived from it. Where no end group is shown, it is not given here. [ ]: non-standard residue; d: D form. γGlu = O=C(O)[C@H](CCC(=O)[*:2])N[*:1]; βAsp = O=C(O)[C@H](CC(=O)[*:2])N[*:1]; Cya = N[C@@H](CS(=O)(=O)O)C(=O)O; Cit = NC(=O)NCCC[C@H](N)C(=O)O

The test has as its target HLA-A*02:01 (Homo sapiens, UniProt P04439, D140Y/D185E/D98H/E176V/E277Q/G131W/G231S/I119V/I121R/I166T/I218V/L300P/L318F/N151K/N90K/P208A/P217A/Q86G/Q94H/R138H/R169H/T345S). Put plainly: HLA-peptide competition binding assay, A*02:01.
Where [1] appears, read: unmodified (WT) insulin peptide, competition binding assay, a dash indicates IC50 >40,000 nM, read-out: A*02:01 binding (IC50 nM) WT.
The mark [2] stands for this setting: post-translationally modified insulin peptide, competition binding assay, a dash indicates IC50 >40,000 nM, read-out: A*02:01 binding (IC50 nM) Modified.
The mark [3] stands for this setting: read-out: IC50 nM, target assay A*02:01.
Where [4] appears, read: read-out: A*02:01 binding (IC50 nM) Modified.
Where [5] appears, read: post-translationally modified insulin-derived peptide, radiolabeled ligand competition, purified MHC, two-day incubation, three or more independent experiments, read-out: A*02:01 binding, Modified.
[6] abbreviates: read-out: A*02:01 binding (IC50 nM) WT.

QHLCGSHLVE: the IC50 under setting [1] was > 40000 nM. As to FVDEHLCGS, the IC50 under setting [2] was > 40000 nM. As for `CC(C)C[C@H](NC(=O)[C@H](Cc1c[nH]cn1)NC(=O)[C@H](CO)NC(=O)CNC(=O)[C@H](CS)NC(=O)[C@H](CC(C)C)NC(=O)[C@H](Cc1c[nH]cn1)NC(=O)CC[C@H](NC(=O)C[C@H](NC(=O)[C@@H](N)C(C)C)C(=O)O)C(=O)O)C(=O)O` [VOZHLCGSHL] (H-V[βAsp][γGlu]HLCGSHL-OH; N-terminus and C-terminus assumed), the half-maximal inhibitory concentration (IC50) under setting [2] was > 40000 nM.

Take `CC(C)C[C@H](NC(=O)[C@H](C)NC(=O)[C@H](CCC(=O)O)NC(=O)[C@@H](NC(=O)[C@H](CC(C)C)NC(=O)[C@H](Cc1c[nH]cn1)NC(=O)[C@H](CO)NC(=O)CNC(=O)[C@H](CS(=O)(=O)O)NC(=O)[C@@H](N)CC(C)C)C(C)C)C(=O)O` [LBGSHLVEAL] (H-L[Cya]GSHLVEAL-OH; N-terminus and C-terminus assumed): the IC50 under setting [2] was > 40000 nM. Regarding KTRREAEDL, under setting [1], the IC50 is > 40000 nM. On to VLFGLGFAI [reference compound], for which, under setting [3], the IC50 stood at 149 nM. On to YIPSCTVVGM [reference compound], for which, under setting [3], the half-maximal inhibitory concentration (IC50) was found to be 9510 nM. For `C[C@H](NC(=O)[C@H](CCC(=O)O)NC(=O)[C@H](CCCNC(N)=O)NC(=O)[C@H](CCCNC(N)=O)NC(=O)[C@@H](NC(=O)[C@H](CCCCN)NC(=O)[C@@H]1CCCN1C(=O)[C@@H](N)[C@@H](C)O)[C@@H](C)O)C(=O)N[C@@H](CCC(=O)O)C(=O)O` (H-TPKT[Cit][Cit]EAE-OH; N-terminus and C-terminus assumed), the 50% inhibitory concentration (IC50) under setting [2] is > 40000 nM. Turning to LLLLDVAPL [reference compound], the IC50 under setting [3] stood at 10 nM. Same read-out and setting: to GIPPAPRGV [reference compound] belongs 1230 nM; to NLLGRFELIGI [reference compound], 1.8 nM. Consider `C[C@@H](O)[C@H](NC(=O)[C@H](Cc1ccc(O)cc1)NC(=O)[C@H](Cc1ccccc1)NC(=O)[C@H](Cc1ccccc1)NC(=O)CNC(=O)[C@H](CCCNC(N)=O)NC(=O)[C@H](CCC(=O)O)NC(=O)CNC(=O)[C@@H](N)CS)C(=O)O` (H-CGE[Cit]GFFYT-OH; N-terminus and C-terminus assumed), for which, under setting [2], the IC50 was > 40000 nM. Consider `CC(C)C[C@H](NC(=O)[C@H](C)NC(=O)[C@H](CC(C)C)NC(=O)[C@H](CC(C)C)NC(=O)[C@@H]1CCCN1C(=O)[C@H](CC(C)C)NC(=O)[C@H](CC(C)C)NC(=O)[C@@H](N)CCCNC(N)=O)C(=O)N[C@@H](CC(C)C)C(=O)N[C@@H](C)C(=O)O` (H-[Cit]LLPLLALLA-OH), for which, under setting [4], the IC50 worked out at 70 nM.

Take RREAEDLQVG: the IC50 under setting [1] is > 40000 nM. Turning to TRREAEDLQV, the IC50 under setting [1] is > 40000 nM.

Take “SISVLISAL [SISVLISAL, reference compound]”: the IC50 under setting [3] worked out at 1550 nM. On to ALARGAGTVPL [reference compound], for which the IC50 under setting [3] came out at 29 nM.

In the case of QLARQQVHV [reference compound], the IC50 under setting [3] is > 40000 nM. Turning to AVAANIVLTV [reference compound], the IC50 under setting [3] amounted to 575 nM. KTRREAEDLQ: the concentration for half-maximal inhibition (IC50) under setting [1] is > 40000 nM. On to SLSPLQAEL [reference compound], for which, under setting [3], the IC50 is 101 nM. In turn, RGYYYTPKT had a pIC50 of 5.06.

`CC(C)C[C@H](NC(=O)[C@H](CC(=O)O)NC(=O)[C@H](CCC(=O)O)NC(=O)[C@H](C)NC(=O)[C@H](CCC(=O)O)NC(=O)[C@H](CCCNC(N)=O)NC(=O)[C@@H](N)CCCNC(N)=O)C(=O)N[C@@H](CCC(N)=O)C(=O)N[C@H](C(=O)NCC(=O)O)C(C)C` (H-[Cit][Cit]EAEDLQVG-OH; N-terminus and C-terminus assumed): the IC50 under setting [2] is > 40000 nM.

Regarding `CC(C)C[C@H](NC(=O)[C@H](CC(=O)O)NC(=O)[C@H](CCC(=O)O)NC(=O)[C@H](C)NC(=O)[C@H](CCC(=O)O)NC(=O)[C@@H](N)CCCNC(N)=O)C(=O)N[C@@H](CCC(N)=O)C(=O)N[C@H](C(=O)NCC(=O)O)C(C)C` (H-[Cit]EAEDLQVG-OH; N-terminus and C-terminus assumed), under setting [2], the IC50 was > 40000 nM.

For the molecule `CC(C)C[C@H](NC(=O)[C@H](C)NC(=O)[C@@H](N)CC(C)C)C(=O)N[C@@H](CCC(=O)O)C(=O)NCC(=O)N[C@@H](CO)C(=O)N[C@@H](CC(C)C)C(=O)N[C@@H](CCC(N)=O)C(=O)N[C@@H](CCCCN)C(=O)N[C@@H](CCCNC(N)=O)C(=O)O` (H-LALEGSLQK[Cit]-OH), the pIC50 under setting [5] is 4.79. As for VLNSVASLL [reference compound], under setting [3], the IC50 was found to be 1140 nM. LVEALYLVCG: under setting [6], the IC50 came out at 23300 nM. For VCGERGYFYT, the IC50 under setting [2] was > 40000 nM. For the molecule LLIDLTSFL [reference compound], the IC50 under setting [3] stood at 8.1 nM. SLYQLENYC [reference compound]: the IC50 under setting [3] was 16900 nM. For the molecule HLVEALYLVC, the IC50 under setting [6] was determined as 692 nM. Take `CC[C@H](C)[C@H](NC(=O)CNC(=O)[C@H](CCCNC(N)=O)NC(=O)[C@H](CCCCN)NC(=O)[C@H](CCC(N)=O)NC(=O)[C@@H](N)CC(C)C)C(=O)N[C@H](C(=O)N[C@@H](CCC(=O)O)C(=O)N[C@@H](CCC(N)=O)C(=O)O)C(C)C` (H-LQK[Cit]GIVEQ-OH; N-terminus and C-terminus assumed): the IC50 under setting [2] is > 40000 nM. As for HLCGSHLVEA [reference compound], the pIC50 was 5.12. Turning to `C[C@H](NC(=O)[C@H](CCC(=O)O)NC(=O)[C@H](CCCNC(N)=O)NC(=O)[C@H](CCCNC(N)=O)NC(=O)[C@@H](NC(=O)[C@H](CCCCN)NC(=O)[C@@H]1CCCN1C(=O)[C@@H](NC(=O)[C@H](Cc1ccc(O)cc1)NC(=O)[C@@H](N)Cc1ccccc1)[C@@H](C)O)[C@@H](C)O)C(=O)O` (H-FYTPKT[Cit][Cit]EA-OH; N-terminus and C-terminus assumed), the IC50 under setting [2] is > 40000 nM. In the case of `CC(C)C[C@H](NC(=O)[C@H](C)N)C(=O)N[C@@H](Cc1ccc(O)c(Cl)c1)C(=O)N[C@@H](CC(C)C)C(=O)N[C@H](C(=O)N[C@@H](CS)C(=O)NCC(=O)N[C@@H](CCC(=O)O)C(=O)N[C@@H](CCCNC(=N)N)C(=O)NCC(=O)O)C(C)C` [ALJLVCGERG], the Fold increase (increase of A*02:01 binding of the modified peptide compared to the WT peptide) is recorded as 3.21 fold. In the case of FLWSVFWLI [reference compound], the IC50 under setting [3] came out at 55 nM.

Regarding `CC(C)[C@H](N)C(=O)N[C@@H](CS)C(=O)NCC(=O)N[C@@H](CCC(=O)O)C(=O)N[C@@H](CCCNC(N)=O)C(=O)NCC(=O)N[C@@H](Cc1ccccc1)C(=O)N[C@@H](Cc1ccccc1)C(=O)N[C@@H](Cc1ccc(O)cc1)C(=O)N[C@H](C(=O)O)[C@@H](C)O` (H-VCGE[Cit]GFFYT-OH; N-terminus and C-terminus assumed), under setting [2], the 50% inhibitory concentration (IC50) is > 40000 nM. As for `CSCC[C@H](N)C(=O)N[C@@H](CCCNC(N)=O)C(=O)N[C@@H](CC(C)C)C(=O)N[C@@H](CC(C)C)C(=O)N1CCC[C@H]1C(=O)N[C@@H](CC(C)C)C(=O)N[C@@H](CC(C)C)C(=O)N[C@@H](C)C(=O)N[C@@H](CC(C)C)C(=O)N[C@@H](CC(C)C)C(=O)O` (H-M[Cit]LLPLLALL-OH), the half-maximal inhibitory concentration (IC50) under setting [4] is 98 nM. `CC(C)C[C@H](N)C(=O)N[C@H](C(=O)N[C@@H](CS)C(=O)NCC(=O)N[C@@H](CCC(=O)O)C(=O)N[C@@H](CCCNC(N)=O)C(=O)NCC(=O)N[C@@H](Cc1ccccc1)C(=O)N[C@@H](Cc1ccccc1)C(=O)N[C@@H](Cc1ccc(O)cc1)C(=O)O)C(C)C` (H-LVCGE[Cit]GFFY-OH; N-terminus and C-terminus assumed): the IC50 under setting [2] is > 40000 nM. For LLGRFELIGI [reference compound], under setting [3], the IC50 amounted to 233 nM. Take GERGFFYTP: the IC50 under setting [1] was > 40000 nM. Consider IQATVMIIV [reference compound], for which the IC50 under setting [3] was 9040 nM. As to VLNSLASLL [reference compound], under setting [3], the IC50 worked out at 4970 nM. The same measure, in the same setting: the value for ILAVDGVLSV [reference compound] was 2.2 nM.

As for LLQVHHSCPL [reference compound], the pIC50 was 5.51.

VNQHLCGSHL: the IC50 under setting [6] was found to be 6640 nM. For the molecule `CC[C@H](C)[C@H](NC(=O)CNC(=O)[C@H](CCCNC(N)=O)NC(=O)[C@H](CCCCN)NC(=O)[C@H](CCC(N)=O)NC(=O)[C@H](CC(C)C)NC(=O)[C@@H](N)CO)C(=O)N[C@H](C(=O)N[C@@H](CCC(=O)O)C(=O)N[C@@H](CCC(N)=O)C(=O)O)C(C)C` (H-SLQK[Cit]GIVEQ-OH; N-terminus and C-terminus assumed), the IC50 under setting [2] was > 40000 nM. Take `CC(C)[C@H](N)C(=O)N[C@@H](CS(=O)(=O)O)C(=O)NCC(=O)N[C@@H](CCC(=O)O)C(=O)N[C@@H](CCCNC(=N)N)C(=O)NCC(=O)N[C@@H](Cc1ccc(O)cc1)C(=O)N[C@@H](Cc1ccc(O)cc1)C(=O)N[C@@H](Cc1ccc(O)cc1)C(=O)N[C@H](C(=O)O)[C@@H](C)O` [VBGERGYYYT] (H-V[Cya]GERGYYYT-OH; N-terminus and C-terminus assumed): the half-inhibitory concentration (IC50) under setting [2] was > 40000 nM. Take YLLLRVLNI [reference compound]: the IC50 under setting [3] amounted to 57 nM. FFYTPKTRRE: the IC50 under setting [1] is > 40000 nM. With `CC(C)C[C@H](NC(=O)[C@H](Cc1ccc(O)cc1)NC(=O)[C@@H](N)CC(C)C)C(=O)N[C@H](C(=O)N[C@@H](CS)C(=O)NCC(=O)N[C@@H](CCC(=O)O)C(=O)N[C@@H](CCCNC(N)=O)C(=O)NCC(=O)O)C(C)C`, the pIC50 under setting [5] is 4.90. As for TRREAEDLQ, the IC50 under setting [1] was > 40000 nM. As for TPKTRREAE, under setting [1], the IC50 was > 40000 nM. Consider SLAAGVKLL [reference compound], for which the IC50 under setting [3] is 3690 nM.

For the molecule FLLSLFSLWL [reference compound], the IC50 under setting [3] came to 16 nM.

Consider LLHVHHSCPL [reference compound], for which the pIC50 was 5.11.

For orientation: IC50 means the concentration at which inhibition is half-maximal.
